From patent publication US20050014735A1, “Treatment of Th2 dominated immunological disease states with progesterone receptor antagonists” (Solvay Pharmaceuticals GmbH, priority 2001, published 2005)

Assays:
[1] = tested on: peripheral blood mononuclear cells (PBMC); test: Th1 and Th2 cytokine profiles produced by mitogen-stimulated PBMC (ELISA), ex vivo; type: cell-based, human
Procedure: The effects of dydrogesterone on Th1 and Th2 cytokine profiles produced by mitogen-stimulated peripheral blood mononuclear cells (=PBMC) were determined. Several studies have pointed to a deviation of cytokine profiles in women when during pregnancy. Pregnancy is associated with a shift towards Th2 bias, evinced by changes in peripheral T cells, by cytokine production by peripheral lymphocytes and by cytokine changes at the maternal-fetal interface. Unexplained recurrent spontaneous abortion (URSA) seems to be associated with a stronger bias towards Th1 cytokines. Women who have earlier been gone through URSA may therefore be regarded as a pre-selected group of patients that will typically respond to an immunological stimulation by showing a Th1 dominated pattern of immune response. The pharmacological test was therefore performed with a suitable URSA group which comprised of women admitted with spontaneous abortion for evacuation, (i) who have had at least two previous unexplained miscarriages, (ii) who were currently undergoing at least a 3rd abortion and (iii) who had been fully investigated. The relationship between habitual abortion and cytokine production response in 54 women with normal pregnancy (and at least 3 previous normal pregnancies) and 23 women with a history of habitual abortion of unexplained aetiology (URSA group) has been investigated. Peripheral blood was obtained by venipuncture from the abortion group on the day of abortion. PBMC is separated by Ficoll-paque (Pharmacia Biotech, Sweden) density gradient centrifugation, suspended in RPMI medium (=“Roswell Park Memorial Institute”-medium; obtained from GIBCO/BRL, USA) containing 10% fetal calf serum, aliquoted into 96 well tissue culture plates at a density of 100.000 cells per well and then stimulated with the mitogen phytohemagglutinin (=PHA, Sigma Chemicals, USA) at a concentration of […] for a period of 96 hours, with autologous placental antigens or with trophoblast antigens. […] Progesterone was tested at concentrations of […]. RU486 was tested at equivalent concentrations. Culture supernatants were harvested at 96 hours for determination of the levels of cytokines secreted by the PBMC into the supernatants. Cytokine levels were determined in the supernatants by enzyme-linked immunosorbent assay (=ELISA). Each sample was tested in the following manner: • PBMC+mitogen • PBMC+mitogen+progesterone • PBMC+mitogen+progesterone+RU486 • PBMC+mitogen+dydrogesterone • PBMC+mitogen+dydrogesterone+RU486 • PBMC+mitogen+Carrier • PBMC+mitogen+Carrier+RU486 Th1 cytokines TNF-α and IFN-γ, and Th2 cytokines IL-4, IL-6 and IL-10 were evaluated in these samples by ELISA using kits that were obtained from Immunotech SA, France. These consisted of “sandwich ELISA”; briefly the first step leads to the capture of the relevant cytokine by monoclonal anti-cytokine antibodies bound to the wells of microtiter plates. In the second step, a second biotinylated monoclonal is added together with streptavidin-enzyme (peroxidase or alkaline phosphatase) conjugate. The biotinylated antibody binds to the solid phase antibody-antigen complex, and in turn, binds the conjugate. After incubation the wells are washed and the binding of the streptavidin-enzyme via biotin is followed by the addition of a chromogenic substrate. The intensity of the coloration produced is proportional to the concentration of the cytokine in the sample. Standard curves are plotted for each of the cytokines using reference recombinant cytokines and the results are read from these curves. The sensitivity of each of the assays is as follows: 5 pg/ml of TNF-α, 0.08 IU/ml of IFN-γ, 5 pg/ml of IL-4 and 5 pg/ml of IL-10. Results will be analysed by the t-test for independent samples.

Th1 cytokine production = conditions: in vitro, women with recurrent pregnancy loss; cited from earlier work
[2] = PBMC of women with spontaneous abortion and habitual abortion
[3] = PBMC supernatant, ELISA, 96 hours

For `CC(=O)[C@H]1CC[C@H]2[C@@H]3C=CC4=CC(=O)CC[C@@]4(C)[C@@H]3CC[C@]12C` [dydrogesterone], the “Th1/Th2 bias of cytokine profile” value [1, 2] was “shift from a Th1 towards a Th2 bias”, the activity of lymphocytes [1, 2] was “reduced” and the IFN-γ level [1, 3] was “reduction”. The “Interleukin 4 level” value [1, 3] was “marked increase”, the “Interleukin 6 level” value [1, 3] was “marked increase” and the “release of progesterone induced blocking factor (PIBF)” value ([1]; women with spontaneous abortion and habitual abortion) was “increased release”.

In the case of `CC(=O)[C@H]1CC[C@H]2[C@@H]3CCC4=CC(=O)CC[C@]4(C)[C@H]3CC[C@]12C` [progesterone], the “embryotoxic Th1 cytokine production to trophoblast” value (Th1 cytokine production) is given as “inhibits”.
